Consider three compounds from patent US5304687A, “Morpholinyl derivatives of doxorubicin and process for their preparation” (priority 1989, dated 1994).

The nature of data set [1]: in vivo. To be noted: mouse, in vivo, iv. Here is the method:
(§1) The primary screening "in vivo" was carried out in BDF1 mice bearing P388 Doxorubicin-resistant Johnson's leukemia (P388/Dx) (10^2 cell/mouse). The drugs were administered iv on day 1 after tumor inoculation.
(§2) ^c O.D. = Optimal Dose: maximally tollerated dose.
(§3) ^d T/C % = Median survival time of treated mice over median survival
(§4) time of controls × 100.

Data set [2] concerns Doxorubicin-resistant P388 Johnson's Leukemia (P388/Dx). The data set can be described thus: in vivo. To be noted: BDF1 mice bearing P388/Dx Johnson (10^2 cell/mouse), iv on day 1, at O.D. Here is the method: as §1, §2, §3, §4
A further data set relates to LoVo. The data set can be described thus: Colony assay test against LoVo cells in vitro (treatment for 4 hrs). It counts as cell-based. The following applies: Homo sapiens, read-out: IC50 (concentration inhibiting 50% of colony growth), LoVo. From the text: The compounds have been tested in several experimental system in order to ascertain their cytotoxicity and antitumor activity in experimental animals in comparison with parent Doxorubicin. The new anthracyclines result more cytotoxic than the parent drug on LoVo and LoVo Doxorubicin-resistant cell line (LoVo/Dx), Table 1, and are active "in vivo" against doxorubicin-resistant cell lines.
(§5) Colony assay test against LoVo and LoVo/Dx resistant cells
(§6) "in vitro" (treatment for 4 hrs)
(§7) ^a IC50 = concentration inhibiting 50% of colony growth

The subject of a further data set is LoVo/Dx resistant cells. The data set can be described thus: cells. It counts as cell-based. The following applies: for IC50: read-out: IC50 (concentration inhibiting 50% of colony growth), LoVo/Dx; for R.I. = Resistance Index = (IC50 LoVo/Dx)/(IC50 LoVo): LoVo/Dx vs LoVo.
Text: as §5, §6, §7
^b R.I. = Resistance Index = (IC50 LoVo/Dx)/(IC50 LoVo)

Data set [3] relates to Doxorubicin-resistant P388 Leukemia (Schabel) (P388/Dx). The data set can be described thus: Effect on Doxorubicin-resistant P388 leukemia (Schabel) in vitro (treatment 1 hr). The class given is cell-based. The following applies: read-out: IC50 (concentration inhibiting 50% of cellular survival), P388/Dx. From the text:
(§8) Effect of A4 on sensitive and Doxorubicin-resistant P388
(§9) Leukemia (Schabel) "in vitro" (treatment 1 hr).
(§10) ^c IC50 = concentration inhibiting 50% of cellular survival.

Data set [4] in a line: in vivo. The following applies: mouse, in vivo, iv.
Text: as §2, §3, §4
The source holds these as a separate data set.

The test system of data set [5] is Doxorubicin-resistant P38B Schabel's Leukemia. In words: in vivo. The following applies: BDF1 mice, P388/Dx Schabel (10^2 cell/mouse), iv on day 1, at O.D.
Text: as §2, §3, §4

Data set [6] concerns mammary human carcinoma (MX1). In words: Effect on mammary human carcinoma (MX1), iv and oral route. The class given is in vivo. To be noted: at O.D.
Text: as §2
(§11) Effect of A4 on mammary human carcinoma (MX1).
(§12) ^h iv q7dx3 = treatment iv every seven days for three times
(§13) ^i po q7dx3 = oral treatment every seven days for three times

Assay in data set [7]: as above
The class given is in vivo. To be noted: in vivo, read-out: O.D. = Optimal Dose: maximally tollerated dose.
Text: as §2, §11, §12, §13

The next data set deals with murine mammary carcinoma. In words: Effect on murine mammary carcinoma, iv and oral route. The class given is in vivo. The following applies: for Tumor Inhibition %: at O.D.
Text: as §2
(§14) Effect of A4 on murine mammary carcinoma.
(§15) ^f iv q4dx4 = treatment iv every four days for four times
(§16) ^g po q4dx4 = oral treatment every four days for four times

Assay in data set [8]: as above
It counts as in vivo. To be noted: mouse, in vivo, read-out: O.D. = Optimal Dose: maximally tollerated dose.
Text: as §2, §14, §15, §16

In a further data set the test system is P388 Leukemia (Schabel). In words: Effect on sensitive P388 leukemia (Schabel) in vitro (treatment 1 hr). The class given is cell-based. To be noted: Mus musculus, read-out: IC50 (concentration inhibiting 50% of cellular survival), P388.
Text: as §8, §9, §10

The mark [9] stands for this setting: iv q7dx3 (iv every seven days for three times).
Where [10] appears, read: po q7dx3 (oral every seven days for three times).
The mark [11] stands for this setting: iv q4dx4 (iv every four days for four times).
Setting [12] is: po q4dx4 (oral every four days for four times).

Values after ≈ are worked out from the molar mass of the structure shown. Read-outs that look alike come from different tables or passages of the source.

With `COc1cccc2c1C(=O)c1c(O)c3c(c(O)c1C2=O)C[C@@](O)(C(=O)CO)C[C@@H]3O[C@H]1C[C@H](N2CCO[C@H](OC)C2)[C@H](O)[C@H](C)O1` [Compound A4, 3'-deamino-3'-(2"(S)-methoxy-4"-morpholinyl)-doxorubicin], the MTD turned out to be 0.09 mg/kg in “in vivo [1]”; 0.09 mg/kg in “in vivo [4]”; 0.05 mg/kg in [7] (setting [9]); 0.13 mg/kg in data set [7] (setting [10]); 0.065 mg/kg in data set [8] (setting [11]); 0.1 mg/kg in data set [8] (setting [12]). The figures for the “T/C % = median survival time of treated mice over median survival time of controls × 100” value (shortened to “T/C % = median survival time”) in data set [2] and in data set [5] were 250% and 153%, respectively. The IC50 with LoVo (4 h) amounted to 0.0087 µg/mL (≈ 0.0135 µM); in the data set with LoVo/Dx resistant cells (LoVo/DX, 4 h), 0.0317 µg/mL (≈ 0.0493 µM); in data set [3] (P388/DX, 1 h) it was 0.0243 µg/mL (≈ 0.0378 µM); in the data set on P388 Leukemia (Schabel) (P388, 1 h), 0.0076 µg/mL (≈ 0.0118 µM). In addition, the “R.I. = Resistance Index = (IC50 LoVo/Dx)/(IC50 LoVo)” value (from here on “R.I. = Resistance Index =”) in the data set on LoVo/Dx resistant cells (treatment for 4 hrs) is 3.6. For the same compound, the “Tumor Inhibition %” value in [6] (setting [9]) is listed as 98%; in [6] (setting [10]), 99%; in the data set on murine mammary carcinoma (setting [11]) it was 94%; in the data set on murine mammary carcinoma (setting [12]), 97%.

`COc1cccc2c1C(=O)c1c(O)c3c(c(O)c1C2=O)C[C@@](O)(C(=O)CO)C[C@@H]3O[C@H]1C[C@H](N2CCO[C@@H](OC)C2)[C@H](O)[C@H](C)O1` [Compound A5, 3'-deamino-3'-(2"(R)-methoxy-4"-morpholinyl)-doxorubicin] gave an MTD in the data set “in vivo [1]” of 0.13 mg/kg. In addition, in data set [2], the “T/C % = median survival time” value is given as 244%. Further, the IC50 with LoVo (4 h) was found to be 0.0065 µg/mL (≈ 0.0101 µM); in the data set with LoVo/Dx resistant cells (LoVo/DX, 4 h) it was 0.0401 µg/mL (≈ 0.0623 µM). Also, the “R.I. = Resistance Index =” value in the data set on LoVo/Dx resistant cells (treatment for 4 hrs) is 6.1.

Consider `COc1cccc2c1C(=O)c1c(O)c3c(c(O)c1C2=O)C[C@@](O)(C(=O)CO)C[C@@H]3O[C@H]1C[C@H](N)[C@H](O)[C@H](C)O1` [Doxorubicin, doxorubicin], for which the “T/C % = median survival time” value in data set [2] was 86%; in [5] it was 100%. The IC50 in the data set on LoVo (in vitro, treatment for 4 hrs) turned out to be 0.0488 µg/mL (≈ 0.0898 µM); in the data set with LoVo/Dx resistant cells (LoVo/Dx, in vitro, treatment for 4 hrs), 2.55 µg/mL (≈ 4.7 µM); in [3] (P388/Dx (Schabel), in vitro, treatment 1 hr) it was 4 µg/mL (≈ 7.36 µM); in the data set on P388 Leukemia (Schabel) (sensitive P388 (Schabel), in vitro, treatment 1 hr) it was 0.0527 µg/mL (≈ 0.097 µM). The “R.I. = Resistance Index =” value with LoVo/Dx resistant cells (treatment for 4 hrs) came to 52.6. In addition, the figures for the “Tumor Inhibition %” value (in data set [6] (setting [9]); in the data set with murine mammary carcinoma (setting [11])) were 72% and 99%, respectively. Moreover, in data set [7] (setting [9]), the MTD stood at 6 mg/kg. Besides, the “O.D. = Optimal Dose: maximally tollerated dose” value in the data set with murine mammary carcinoma (setting [11]) is 5.85 mg/kg.
